Patent US20240307319A1, “IONIZABLE LIPID MOLECULE, PREPARATION METHOD THEREFOR, AND APPLICATION THEREOF IN PREPARATION OF LIPID NANOPARTICLE” (IMMORNA (HANGZHOU) BIOTECHNOLOGY CO., LTD., priority 2021, published 2024)

Test system: BHK cells
Test: Protein in vitro expression ability of eGFP mRNA lipid nanoparticle compositions in BHK cells by flow cytometer
Format: cell-based
Settings: 24-hour co-incubation, MC3 LNP without mRNA set as 0; for Fluorescent protein expression rate (0.1 μg): 0.1 μg LNP composition with eGFP mRNA; for Fluorescent protein expression rate (0.5 μg): 0.5 μg LNP composition with eGFP mRNA
Procedure: BHK cells were from ATCC and maintained at 37° C. under 5% CO2 in Dulbecco's modified Eagle medium (HyClone) supplemented with 10% fetal bovine serum (HyClone). 0.1 μg or 0.5 μg of the lipid nanoparticle composition prepared by the ionizable lipid compound of the invention or the commercial MC3 nanoparticle composition was co-incubated with the BHK cells to deliver the mRNA nucleic acid encoding the enhanced green fluorescent protein contained therein into the BHK cells to express the corresponding protein. After 24-hour co-incubation, the cells were digested with trypsin and collected, and signal intensity of intracellular green fluorescent protein was collected using a flow cytometer. Analysis of relative protein expression rates was performed using a cell group to which the commercial MC3 nanoparticle composition not containing mRNA encoding enhanced green fluorescent protein was added as a control.
The fluorescence intensity obtained after the commercial MC3 nanoparticle composition not containing mRNA encoding enhanced green fluorescent protein was co-incubated with cells is set as the base point, with the green fluorescent protein expression rate being 0.

| SMILES | Fluorescent protein expression rate (0.1 μg) [%] | Fluorescent protein expression rate (0.5 μg) [%] |
| --- | --- | --- |
| CCCCCCCCCOC(=O)CCCCCCCOc1ccc(OCCCCCCCC(=O)OCCCCCCCCC)c(COC(=O)CCCN(C)C)c1 [Compound I] | 82.60 | 93.51 |
| CCCCC/C=C\C/C=C\CCCCCCCCC(CCCCCCCC/C=C\C/C=C\CCCCC)OC(=O)CCCN(C)C [MC3, Dlin-MC3-DMA] | 95.87 | 99.99 |
